Results from patent US20200188477A1, “A MEDICAMENT FOR THE TREATMENT OF DISEASES BY BIOFILM FORMING MICROORGANISMS” (priority 2017, published 2020).

Tested on: M. smegmatis over-expressing M. tuberculosis PpiB protein
Assay: Biofilm formation assay (crystal violet)
Format: cell-based, Mycobacterium smegmatis
Conditions: Ms_PpiB (Tet+), 7 days, absorbance 550 nm

With C[C@H]1O[C@H](O[C@H]2[C@H](O)[C@@H](O)[C@@H](O[C@H]3[C@H](O)[C@@H](O)C(O)O[C@@H]3CO)O[C@@H]2CO)[C@H](O)[C@@H](O)[C@@H]1N[C@H]1C=C(CO)[C@@H](O)[C@H](O)[C@H]1O (stereo partly shown) [acarbose] the “concentration at which treatment significantly reduced biofilm formation” value was “above 500 μg/ml”.
